Patent US12145939B2, “Substituted [1,2,4]triazolo[4,3-a]pyrazines as ion channel modulators” (PRAXIS PRECISION MEDICINES, INC., priority 2019, dated 2024)

Molecular target: T1, human NaV1.6 (hNaV1.6) (Homo sapiens, UniProt Q9UQD0)
T1 construct: expressed in transfected cells; host or cells: HEK-293
Test: Modulation of late sodium current (INaL) at hNaV1.6, PatchXpress electrophysiology
Type: cell-based
Conditions: HEK293, HEK-293 cells expressing recombinant human NaV 1.6, late current evoked by 300 nM ATX-II, read-out: NaV 1.6 Assay Data (percent inhibition of INaL at hNaV1.6)
Experimental: Functional characterization of exemplary compounds to modulate INaL expressed by the NaV1.6 voltage-gated sodium channel was accomplished using the PatchXpress™ high throughput electrophysiology platform (Molecular Devices, Sunnyvale, CA). HEK-293 cells expressing recombinant, human NaV1.6 (hNaV1.6) were grown in DMEM/high-glucose Dulbecco's modified, 10% FBS, 2 mM sodium pyruvate, 10 mM HEPES and 400 μg/mL G418. Cells were grown to 50%-80% confluency prior to harvesting. Trypsinized cells were washed, allowed to recover for 1 hour and then resuspended in extracellular recording solution at a concentration of 1×10^6 cells/ml. The onboard liquid handling facility of the PatchXpress was used for dispensing cells and applying test compounds. NaV late currents were evoked by the application of 300 nM ATX-II. INaL was evoked by depolarizing pulses to 0 mV for 200 ms from a non-inactivating holding potential (e.g., −120 mV) at a frequency of 0.1 Hz. INaL amplitude and stability were determined by analyzing the mean current amplitude over the final 20 ms of the test pulse. Following steady state block with exemplary compounds (e.g., as described herein), a Na+ free solution containing an impermeant cation (e.g., Choline or NDMG) was added to confirm the identity of the sodium current. Percent steady-state inhibition of INaL was calculated as: […], where INaL_compound and INaL_control represent INaL recorded in the presence or absence of compound, respectively.
Results from this assay relating to percent inhibition of INaL at hNaV1.6 (measured using a procedure similar to described above but using HEK-293 cells expressing recombinant, human NaV 1.6 (h NaV 1.6) at 1 μM are summarized in Table 1 below. In this table, “A” indicates inhibition of less than 30%; “B” indicates inhibition of between about 30% to about 70%; and “C” indicates inhibition of greater than 70%. “N/A” indicates not available.

T1 sequence (Q9UQD0 whole entry): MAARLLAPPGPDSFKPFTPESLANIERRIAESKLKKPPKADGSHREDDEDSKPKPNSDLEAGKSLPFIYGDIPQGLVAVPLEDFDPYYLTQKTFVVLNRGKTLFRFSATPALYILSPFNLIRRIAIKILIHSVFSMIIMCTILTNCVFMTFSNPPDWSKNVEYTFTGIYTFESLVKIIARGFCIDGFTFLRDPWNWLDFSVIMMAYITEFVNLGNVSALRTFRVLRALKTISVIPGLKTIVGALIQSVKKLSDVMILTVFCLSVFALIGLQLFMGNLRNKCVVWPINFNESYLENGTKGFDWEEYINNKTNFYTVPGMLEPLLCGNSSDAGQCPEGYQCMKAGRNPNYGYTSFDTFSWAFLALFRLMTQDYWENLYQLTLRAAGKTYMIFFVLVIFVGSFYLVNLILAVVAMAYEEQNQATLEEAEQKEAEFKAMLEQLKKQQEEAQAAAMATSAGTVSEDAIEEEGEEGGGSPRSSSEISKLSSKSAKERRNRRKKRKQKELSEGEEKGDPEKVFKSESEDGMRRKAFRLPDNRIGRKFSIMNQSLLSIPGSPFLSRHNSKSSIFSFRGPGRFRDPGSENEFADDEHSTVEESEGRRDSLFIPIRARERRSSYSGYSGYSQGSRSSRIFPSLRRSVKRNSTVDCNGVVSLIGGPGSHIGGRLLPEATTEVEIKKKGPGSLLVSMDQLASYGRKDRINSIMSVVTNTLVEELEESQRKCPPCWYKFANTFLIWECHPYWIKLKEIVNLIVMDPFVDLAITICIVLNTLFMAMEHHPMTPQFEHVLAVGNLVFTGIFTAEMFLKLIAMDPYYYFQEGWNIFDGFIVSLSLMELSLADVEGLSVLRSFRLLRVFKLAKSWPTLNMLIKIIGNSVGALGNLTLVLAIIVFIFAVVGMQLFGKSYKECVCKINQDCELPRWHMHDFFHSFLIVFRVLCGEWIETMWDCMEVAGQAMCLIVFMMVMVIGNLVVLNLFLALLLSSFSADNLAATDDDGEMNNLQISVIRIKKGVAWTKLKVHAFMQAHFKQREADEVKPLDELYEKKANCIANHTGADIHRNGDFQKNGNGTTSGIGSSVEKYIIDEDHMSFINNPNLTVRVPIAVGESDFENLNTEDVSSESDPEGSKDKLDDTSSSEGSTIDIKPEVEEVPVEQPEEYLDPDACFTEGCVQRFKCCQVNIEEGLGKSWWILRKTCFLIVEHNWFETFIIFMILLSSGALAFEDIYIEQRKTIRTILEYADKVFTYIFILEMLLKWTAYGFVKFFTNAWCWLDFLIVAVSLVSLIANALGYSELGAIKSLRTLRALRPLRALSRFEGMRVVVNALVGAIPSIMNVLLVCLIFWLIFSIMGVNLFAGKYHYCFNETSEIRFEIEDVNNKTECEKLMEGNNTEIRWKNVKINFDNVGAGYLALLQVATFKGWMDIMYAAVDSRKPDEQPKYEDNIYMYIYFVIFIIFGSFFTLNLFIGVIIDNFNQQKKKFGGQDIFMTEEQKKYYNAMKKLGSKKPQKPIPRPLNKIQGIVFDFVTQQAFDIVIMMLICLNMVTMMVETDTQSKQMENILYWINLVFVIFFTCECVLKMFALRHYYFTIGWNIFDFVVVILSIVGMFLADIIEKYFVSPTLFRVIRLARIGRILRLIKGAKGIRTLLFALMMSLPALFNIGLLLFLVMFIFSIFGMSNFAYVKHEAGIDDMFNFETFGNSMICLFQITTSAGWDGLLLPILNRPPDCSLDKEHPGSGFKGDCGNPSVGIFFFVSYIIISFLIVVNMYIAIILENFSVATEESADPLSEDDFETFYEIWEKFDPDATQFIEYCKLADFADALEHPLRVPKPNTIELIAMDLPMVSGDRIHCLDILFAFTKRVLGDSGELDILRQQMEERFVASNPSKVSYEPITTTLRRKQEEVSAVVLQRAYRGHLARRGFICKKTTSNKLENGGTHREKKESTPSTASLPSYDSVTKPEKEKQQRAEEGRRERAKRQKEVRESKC

inhibition at 1 µM [%] | Structure (SMILES)
30 to 70 | CCOC(F)(F)c1nnc2cnc(-c3ccc(COCC(F)(F)F)cc3C)cn12 [Compound III-5, 3-[ethoxy(difluoro)methyl]-6-[2-methyl-4-(2,2,2-trifluoroethoxymethyl)phenyl]-[1,2,4]triazolo[4,3-a]pyrazine]
> 70 | FC(F)(F)Oc1ccc(-c2cn3c(C(F)(F)F)nnc3cn2)c(C2CC2)c1 [Compound III-1, 6-[2-cyclopropyl-4-(trifluoromethoxy)phenyl]-3-(trifluoromethyl)-[1,2,4]triazolo[4,3-a]pyrazine]
< 30 | CCOC(F)(F)c1nnc2cnc(-c3ccc([C@H](C)OCC(F)(F)F)cc3C)cn12 (single isomer, unassigned) [Compound III-10]
> 70 | C[C@H](Oc1ccc(-c2cn3c(C(F)F)nnc3cn2)cn1)C(F)(F)F [Compound III-16, (S)-3-(difluoromethyl)-6-(6-((1,1,1-trifluoropropan-2-yl)oxy)pyridin-3-yl)-[1,2,4]triazolo[4,3-a]pyrazine]
30 to 70 | COC(F)(F)c1nnc2cnc(-c3ccc(COCC(F)(F)F)cc3C)cn12 [Compound III-6, 3-[difluoro(methoxy)methyl]-6-[2-methyl-4-(2,2,2-trifluoroethoxymethyl)phenyl]-[1,2,4]triazolo[4,3-a]pyrazine]
30 to 70 | CO[C@@H](C)c1nnc2cnc(-c3cnc(OC(C)(C)C(F)(F)F)c(F)c3)cn12 (single isomer, unassigned) [Compound I-2]
< 30 | CO[C@H](C)c1nnc2cnc(-c3cnc(O[C@@H](C4CC4)C(F)(F)F)c(F)c3)cn12 (single isomer, unassigned) [Compound I-17]
< 30 | COC(C)(C)c1nnc2cnc(-c3cnc(OCC(F)(F)F)c(F)c3)cn12 [Compound II-4, 6-(5-fluoro-6-(2,2,2-trifluoroethoxy)pyridin-3-yl)-3-(2-methoxypropan-2-yl)-[1,2,4]triazolo[4,3-a]pyrazine]
< 30 | CO[C@@H](C)c1nnc2cnc(-c3ccc(O[C@@H](C4CC4)C(F)(F)F)nc3)cn12 (single isomer, unassigned) [Compound I-21]
< 30 | CO[C@H](C)c1nnc2cnc(-c3ccc(O[C@H](C4CC4)C(F)(F)F)nc3)cn12 (single isomer, unassigned) [Compound I-24]
> 70 | COC(C)(C)c1nnc2cnc(-c3cnc(OC(C)(C)C(F)(F)F)c(F)c3)cn12 [Compound II-10, 6-[5-fluoro-6-(2,2,2-trifluoro-1,1-dimethyl-ethoxy)-3-pyridyl]-3-(1-methoxy-1-methyl-ethyl)-[1,2,4]triazolo[4,3-a]pyrazine]
30 to 70 | CO[C@@H](C)c1nnc2cnc(-c3ccc(OC4(C(F)(F)F)CCC4)nc3)cn12 (single isomer, unassigned) [Compound I-5]
30 to 70 | COC(C)(C)c1nnc2cnc(-c3cnc(O[C@@H](C)C(F)(F)F)c(F)c3)cn12 [Compound II-9, (S)-6-(5-fluoro-6-((1,1,1-trifluoropropan-2-yl)oxy)pyridin-3-yl)-3-(2-methoxypropan-2-yl)-[1,2,4]triazolo[4,3-a]pyrazine]
> 70 | COC(F)(F)c1nnc2cnc(-c3ccc([C@H]4CC4(F)F)cc3C)cn12 (single isomer, unassigned) [Compound III-7]
> 70 | CCOC(F)(F)c1nnc2cnc(-c3ccc(OC(F)(F)F)cc3C3CC3)cn12 [Compound III-2, 6-[2-cyclopropyl-4-(trifluoromethoxy)phenyl]-3-[ethoxy(difluoro)methyl]-[1,2,4]triazolo[4,3-a]pyrazine]
30 to 70 | CCO[C@H](C)c1nnc2cnc(-c3ccc(OC(C)(C)C(F)(F)F)nc3)cn12 [Compound I-19, (R)-3-(1-ethoxyethyl)-6-(6-((1,1,1-trifluoro-2-methylpropan-2-yl)oxy)pyridin-3-yl)-[1,2,4]triazolo[4,3-a]pyrazine]
> 70 | COC(F)(F)c1nnc2cnc(-c3ccc([C@@H]4CC4(F)F)cc3)cn12 (single isomer, unassigned) [Compound III-3]
30 to 70 | CCO[C@@H](C)c1nnc2cnc(-c3cnc(OC(C)(C)C(F)(F)F)c(F)c3)cn12 [Compound I-12, 6-[5-fluoro-6-(2,2,2-trifluoro-1,1-dimethyl-ethoxy)-3-pyridyl]-3-[(1S)-1-ethoxyethyl]-[1,2,4]triazolo[4,3-a]pyrazine]
> 70 | CO[C@H](C)c1nnc2cnc(-c3cnc(OC(C)(C)C(F)(F)F)c(F)c3)cn12 (single isomer, unassigned) [Compound I-1]
30 to 70 | CO[C@@H](C)c1nnc2cnc(-c3cnc(O[C@H](C4CC4)C(F)(F)F)c(F)c3)cn12 (single isomer, unassigned) [Compound I-16]
< 30 | CO[C@@H](C)c1nnc2cnc(-c3ccc(O[C@H](C4CC4)C(F)(F)F)nc3)cn12 (single isomer, unassigned) [Compound I-23]
30 to 70 | COC(F)(F)c1nnc2cnc(-c3ccc([C@H]4CC4(F)F)cc3)cn12 (single isomer, unassigned) [Compound III-4]
30 to 70 | CO[C@@H](C)c1nnc2cnc(-c3ccc(OC(C)(C)C(F)(F)F)nc3)cn12 (single isomer, unassigned) [Compound I-10]

Structure (SMILES) | inhibition at 1 µM [%]
CCO[C@@H](C)c1nnc2cnc(-c3cnc(OC4(C(F)(F)F)CCC4)c(F)c3)cn12 [Compound I-7, (S)-3-(1-ethoxyethyl)-6-(5-fluoro-6-(1-(trifluoromethyl)cyclobutoxy)pyridin-3-yl)-[1,2,4]triazolo[4,3-a]pyrazine] | 30 to 70
CCO[C@H](C)c1nnc2cnc(-c3cnc(OC4(C(F)(F)F)CCC4)c(F)c3)cn12 [Compound I-14, (R)-3-(1-ethoxyethyl)-6-(5-fluoro-6-(1-(trifluoromethyl)cyclobutoxy)pyridin-3-yl)-[1,2,4]triazolo[4,3-a]pyrazine] | 30 to 70
